What was measured:
[1] = in vivo; cited from earlier work
[2] = in vivo

COc1cc2c(cc1OC)CN(C(=O)[C@H](C)N[C@@H](CCc1ccccc1)C(=O)O)[C@H](C(=O)O)C2 [Moexipril_diacid]
HIA(Human Intestinal Absorption) [1]: 0.05 | Class(High: HIA value ≥0.7; Low: HIA value < 0.7) [2]: Low (key: High: HIA value ≥0.7; Low: HIA value < 0.7)

CO[C@@]1(NC(=O)C(C(=O)O)c2ccc(O)cc2)C(=O)N2C(C(=O)O)=C(CSc3nnnn3C)CO[C@@H]21 (stereo partly drawn) [Moxalactam(R)]
HIA(Human Intestinal Absorption) [1]: 0.01 | Class(High: HIA value ≥0.7; Low: HIA value < 0.7) [2]: Low (key: High: HIA value ≥0.7; Low: HIA value < 0.7)

CC(C)[C@H]1CC[C@H](C(=O)N[C@H](Cc2ccccc2)C(=O)O)CC1 [Nateglinide(R)]
HIA(Human Intestinal Absorption) [1]: 0.83 | Class(High: HIA value ≥0.7; Low: HIA value < 0.7) [2]: High (key: High: HIA value ≥0.7; Low: HIA value < 0.7)

NC[C@@H]1O[C@H](O[C@H]2[C@@H](O)[C@H](O[C@@H]3[C@@H](O)[C@H](N)C[C@H](N)[C@H]3O[C@H]3O[C@H](CN)[C@@H](O)[C@H](O)[C@H]3N)O[C@@H]2CO)[C@H](N)[C@@H](O)[C@@H]1O [Neomycin]
HIA(Human Intestinal Absorption) [1]: 0.03 | Class(High: HIA value ≥0.7; Low: HIA value < 0.7) [2]: Low (key: High: HIA value ≥0.7; Low: HIA value < 0.7)

CN(C)C(=O)Oc1cccc([N+](C)(C)C)c1 [Neostigmine]
HIA(Human Intestinal Absorption) [1]: 0.02 | Class(High: HIA value ≥0.7; Low: HIA value < 0.7) [2]: Low (key: High: HIA value ≥0.7; Low: HIA value < 0.7)

COC(=O)C1=C(C)NC(C)=C(C(=O)OCCN(C)Cc2ccccc2)[C@@H]1c1cccc([N+](=O)[O-])c1 [Nicardipine(R)]
HIA(Human Intestinal Absorption) [1]: 0.95 | Class(High: HIA value ≥0.7; Low: HIA value < 0.7) [2]: High (key: High: HIA value ≥0.7; Low: HIA value < 0.7)

COC(=O)C1=C(C)NC(C)=C(C(=O)OCCN(C)Cc2ccccc2)[C@H]1c1cccc([N+](=O)[O-])c1 [Nicardipine(S)]
HIA(Human Intestinal Absorption) [1]: 0.95 | Class(High: HIA value ≥0.7; Low: HIA value < 0.7) [2]: High (key: High: HIA value ≥0.7; Low: HIA value < 0.7)

CN1CCC[C@H]1c1cccnc1 [Nicotine(S)]
HIA(Human Intestinal Absorption) [1]: 1 | Class(High: HIA value ≥0.7; Low: HIA value < 0.7) [2]: High (key: High: HIA value ≥0.7; Low: HIA value < 0.7)

COC(=O)C1=C(C#N)NC(C)=C(C(=O)OC(C)C)[C@H]1c1cccc([N+](=O)[O-])c1 [Nilvadipine(R)]
HIA(Human Intestinal Absorption) [1]: 1 | Class(High: HIA value ≥0.7; Low: HIA value < 0.7) [2]: High (key: High: HIA value ≥0.7; Low: HIA value < 0.7)

COC(=O)C1=C(C#N)NC(C)=C(C(=O)OC(C)C)[C@@H]1c1cccc([N+](=O)[O-])c1 [Nilvadipine(S)]
HIA(Human Intestinal Absorption) [1]: 1 | Class(High: HIA value ≥0.7; Low: HIA value < 0.7) [2]: High (key: High: HIA value ≥0.7; Low: HIA value < 0.7)

COC(=O)C1=C(C)NC(C)=C(C(=O)OCC(C)C)[C@@H]1c1ccccc1[N+](=O)[O-] [Nisoldipine(R)]
HIA(Human Intestinal Absorption) [1]: 0.9 | Class(High: HIA value ≥0.7; Low: HIA value < 0.7) [2]: High (key: High: HIA value ≥0.7; Low: HIA value < 0.7)

COC(=O)C1=C(C)NC(C)=C(C(=O)OCC(C)C)[C@H]1c1ccccc1[N+](=O)[O-] [Nisoldipine(S)]
HIA(Human Intestinal Absorption) [1]: 0.9 | Class(High: HIA value ≥0.7; Low: HIA value < 0.7) [2]: High (key: High: HIA value ≥0.7; Low: HIA value < 0.7)

O=C1CN=C(c2ccccc2)c2cc([N+](=O)[O-])ccc2N1 [Nitrazepam]
HIA(Human Intestinal Absorption) [1]: 0.95 | Class(High: HIA value ≥0.7; Low: HIA value < 0.7) [2]: High (key: High: HIA value ≥0.7; Low: HIA value < 0.7)

CCOC(=O)C1=C(C)NC(C)=C(C(=O)OC)[C@H]1c1cccc([N+](=O)[O-])c1 [Nitrendipine(R)]
HIA(Human Intestinal Absorption) [1]: 0.88 | Class(High: HIA value ≥0.7; Low: HIA value < 0.7) [2]: High (key: High: HIA value ≥0.7; Low: HIA value < 0.7)

CCOC(=O)C1=C(C)NC(C)=C(C(=O)OC)[C@@H]1c1cccc([N+](=O)[O-])c1 [Nitrendipine(S)]
HIA(Human Intestinal Absorption) [1]: 0.88 | Class(High: HIA value ≥0.7; Low: HIA value < 0.7) [2]: High (key: High: HIA value ≥0.7; Low: HIA value < 0.7)

O/N=C/c1cc[n+](COC[n+]2ccc(/C=N/O)cc2)cc1 [Obidoxime]
HIA(Human Intestinal Absorption) [1]: 0.05 | Class(High: HIA value ≥0.7; Low: HIA value < 0.7) [2]: Low (key: High: HIA value ≥0.7; Low: HIA value < 0.7)

C[C@@H]1COc2c(N3CCN(C)CC3)c(F)cc3c(=O)c(C(=O)O)cn1c23 [Ofloxacin(R)]
HIA(Human Intestinal Absorption) [1]: 1 | Class(High: HIA value ≥0.7; Low: HIA value < 0.7) [2]: High (key: High: HIA value ≥0.7; Low: HIA value < 0.7)

C[C@H]1COc2c(N3CCN(C)CC3)c(F)cc3c(=O)c(C(=O)O)cn1c23 [Ofloxacin(S)]
HIA(Human Intestinal Absorption) [1]: 1 | Class(High: HIA value ≥0.7; Low: HIA value < 0.7) [2]: High (key: High: HIA value ≥0.7; Low: HIA value < 0.7)

Cc1nccn1C[C@H]1CCc2c(c3ccccc3n2C)C1=O [Ondansetron(R)]
HIA(Human Intestinal Absorption) [1]: 1 | Class(High: HIA value ≥0.7; Low: HIA value < 0.7) [2]: High (key: High: HIA value ≥0.7; Low: HIA value < 0.7)

Cc1nccn1C[C@@H]1CCc2c(c3ccccc3n2C)C1=O [Ondansetron(S)]
HIA(Human Intestinal Absorption) [1]: 1 | Class(High: HIA value ≥0.7; Low: HIA value < 0.7) [2]: High (key: High: HIA value ≥0.7; Low: HIA value < 0.7)

C=CCOc1ccccc1OC[C@H](O)CNC(C)C [Oxprenolol(R)]
HIA(Human Intestinal Absorption) [1]: 0.95 | Class(High: HIA value ≥0.7; Low: HIA value < 0.7) [2]: High (key: High: HIA value ≥0.7; Low: HIA value < 0.7)

C=CCOc1ccccc1OC[C@@H](O)CNC(C)C [Oxprenolol(S)]
HIA(Human Intestinal Absorption) [1]: 0.95 | Class(High: HIA value ≥0.7; Low: HIA value < 0.7) [2]: High (key: High: HIA value ≥0.7; Low: HIA value < 0.7)

COc1ccc2c3c1O[C@H]1C(=O)CC[C@@]4(O)[C@@H](C2)N(C)CC[C@]314 [Oxycodone]
HIA(Human Intestinal Absorption) [1]: 0.6 | Class(High: HIA value ≥0.7; Low: HIA value < 0.7) [2]: Low (key: High: HIA value ≥0.7; Low: HIA value < 0.7)

COc1cccc(C(=O)CCN[C@@H](C)[C@H](O)c2ccccc2)c1 [Oxyfedrine]
HIA(Human Intestinal Absorption) [1]: 0.84 | Class(High: HIA value ≥0.7; Low: HIA value < 0.7) [2]: High (key: High: HIA value ≥0.7; Low: HIA value < 0.7)

CCCC[C@@H]1C(=O)N(c2ccccc2)N(c2ccc(O)cc2)C1=O [Oxyphenbutazone(R)]
HIA(Human Intestinal Absorption) [1]: 1 | Class(High: HIA value ≥0.7; Low: HIA value < 0.7) [2]: High (key: High: HIA value ≥0.7; Low: HIA value < 0.7)

CCCC[C@H]1C(=O)N(c2ccccc2)N(c2ccc(O)cc2)C1=O [Oxyphenbutazone(S)]
HIA(Human Intestinal Absorption) [1]: 1 | Class(High: HIA value ≥0.7; Low: HIA value < 0.7) [2]: High (key: High: HIA value ≥0.7; Low: HIA value < 0.7)

COc1ccc(Cc2nccc3cc(OC)c(OC)cc23)cc1OC [Papaverine]
HIA(Human Intestinal Absorption) [1]: 0.9 | Class(High: HIA value ≥0.7; Low: HIA value < 0.7) [2]: High (key: High: HIA value ≥0.7; Low: HIA value < 0.7)

CC(C)(C)NC[C@H](O)COc1ccccc1C1CCCC1 [Penbutolol(S)]
HIA(Human Intestinal Absorption) [1]: 1 | Class(High: HIA value ≥0.7; Low: HIA value < 0.7) [2]: High (key: High: HIA value ≥0.7; Low: HIA value < 0.7)

CC(C)=CCN1CCC2(C)c3cc(O)ccc3CC1C2C (centres unmarked) [Pentazocine]
HIA(Human Intestinal Absorption) [1]: 0.95 | Class(High: HIA value ≥0.7; Low: HIA value < 0.7) [2]: High (key: High: HIA value ≥0.7; Low: HIA value < 0.7)

CCC[C@@H](C)C1(CC)C(=O)NC(=O)NC1=O [Pentobarbital(R)]
HIA(Human Intestinal Absorption) [1]: 1 | Class(High: HIA value ≥0.7; Low: HIA value < 0.7) [2]: High (key: High: HIA value ≥0.7; Low: HIA value < 0.7)

CCC[C@H](C)C1(CC)C(=O)NC(=O)NC1=O [Pentobarbital(S)]
HIA(Human Intestinal Absorption) [1]: 1 | Class(High: HIA value ≥0.7; Low: HIA value < 0.7) [2]: High (key: High: HIA value ≥0.7; Low: HIA value < 0.7)

CCN(CC)CC[C@@]1(c2ccccc2)CCC(=O)NC1=O [Phenglutarimide(R)]
HIA(Human Intestinal Absorption) [1]: 1 | Class(High: HIA value ≥0.7; Low: HIA value < 0.7) [2]: High (key: High: HIA value ≥0.7; Low: HIA value < 0.7)

CCN(CC)CC[C@]1(c2ccccc2)CCC(=O)NC1=O [Phenglutarimide(S)]
HIA(Human Intestinal Absorption) [1]: 1 | Class(High: HIA value ≥0.7; Low: HIA value < 0.7) [2]: High (key: High: HIA value ≥0.7; Low: HIA value < 0.7)

CN(C)CC[C@H](c1ccccc1)c1ccccn1 [Pheniramine(R)]
HIA(Human Intestinal Absorption) [1]: 0.99 | Class(High: HIA value ≥0.7; Low: HIA value < 0.7) [2]: High (key: High: HIA value ≥0.7; Low: HIA value < 0.7)

CC1(C)S[C@@H]2[C@H](NC(=O)COc3ccccc3)C(=O)N2[C@H]1C(=O)O [Phenoxymethyl penicillinic acid]
HIA(Human Intestinal Absorption) [1]: 0.45 | Class(High: HIA value ≥0.7; Low: HIA value < 0.7) [2]: Low (key: High: HIA value ≥0.7; Low: HIA value < 0.7)

CC[C@H](c1ccccc1)c1c(O)c2ccccc2oc1=O [Phenprocoumon(R)]
HIA(Human Intestinal Absorption) [1]: 0.95 | Class(High: HIA value ≥0.7; Low: HIA value < 0.7) [2]: High (key: High: HIA value ≥0.7; Low: HIA value < 0.7)

CC[C@@H](c1ccccc1)c1c(O)c2ccccc2oc1=O [Phenprocoumon(S)]
HIA(Human Intestinal Absorption) [1]: 0.95 | Class(High: HIA value ≥0.7; Low: HIA value < 0.7) [2]: High (key: High: HIA value ≥0.7; Low: HIA value < 0.7)

CCCCC1C(=O)N(c2ccccc2)N(c2ccccc2)C1=O [Phenylbutazone]
HIA(Human Intestinal Absorption) [1]: 0.98 | Class(High: HIA value ≥0.7; Low: HIA value < 0.7) [2]: High (key: High: HIA value ≥0.7; Low: HIA value < 0.7)

CC(N)C(O)c1ccccc1 (centres unmarked) [Phenylpropanolamine]
HIA(Human Intestinal Absorption) [1]: 0.95 | Class(High: HIA value ≥0.7; Low: HIA value < 0.7) [2]: High (key: High: HIA value ≥0.7; Low: HIA value < 0.7)

CC(C)NC[C@@H](O)COc1cccc2[nH]ccc12 [Pindolol(R)]
HIA(Human Intestinal Absorption) [1]: 0.9 | Class(High: HIA value ≥0.7; Low: HIA value < 0.7) [2]: High (key: High: HIA value ≥0.7; Low: HIA value < 0.7)

CC(C)NC[C@H](O)COc1cccc2[nH]ccc12 [Pindolol(S)]
HIA(Human Intestinal Absorption) [1]: 0.9 | Class(High: HIA value ≥0.7; Low: HIA value < 0.7) [2]: High (key: High: HIA value ≥0.7; Low: HIA value < 0.7)

CC(C)(C)NC[C@@H](O)c1ccc(O)c(CO)n1 [Pirbuterol(R)]
HIA(Human Intestinal Absorption) [1]: 0.6 | Class(High: HIA value ≥0.7; Low: HIA value < 0.7) [2]: Low (key: High: HIA value ≥0.7; Low: HIA value < 0.7)

CC(C)(C)NC[C@H](O)c1ccc(O)c(CO)n1 [Pirbuterol(S)]
HIA(Human Intestinal Absorption) [1]: 0.6 | Class(High: HIA value ≥0.7; Low: HIA value < 0.7) [2]: Low (key: High: HIA value ≥0.7; Low: HIA value < 0.7)

C[N+]1(C)CCCC1COC(=O)C(O)(c1ccccc1)c1ccccc1 (centres unmarked) [Poldine]
HIA(Human Intestinal Absorption) [1]: 0.05 | Class(High: HIA value ≥0.7; Low: HIA value < 0.7) [2]: Low (key: High: HIA value ≥0.7; Low: HIA value < 0.7)

CN1[C@H](CSCC(F)(F)F)Nc2cc(Cl)c(S(N)(=O)=O)cc2S1(=O)=O [Polythiazide(R)]
HIA(Human Intestinal Absorption) [1]: 1 | Class(High: HIA value ≥0.7; Low: HIA value < 0.7) [2]: High (key: High: HIA value ≥0.7; Low: HIA value < 0.7)

CN1[C@@H](CSCC(F)(F)F)Nc2cc(Cl)c(S(N)(=O)=O)cc2S1(=O)=O [Polythiazide(S)]
HIA(Human Intestinal Absorption) [1]: 1 | Class(High: HIA value ≥0.7; Low: HIA value < 0.7) [2]: High (key: High: HIA value ≥0.7; Low: HIA value < 0.7)

Source: publication PMC4460250, “Systems Pharmacology Dissecting Holistic Medicine for Treatment of Complex Diseases: An Example Using Cardiocerebrovascular Diseases Treated by TCM” (Evidence-based Complementary and Alternative Medicine : eCAM, 2015)
